Measurements: patent US20240002450A1 (priority 2020, published 2024)
Bridge positions count the residues as written; N and C are the ends. Square brackets hold non-standard residues; d marks the D form. Peptide text beside a SMILES is read from it. S5 = C=CCCC[C@](C)(N)C(=O)O; βAla = NCCC(=O)O

Test system: Zaire Ebola virus
Assay type: cell-based

Row | Compound | infected cells after 24 hours of infection | inhibition of virus infection at six hours post-infection
1 | HDWTX1NIX2DKIX3QIIHDFVDK, wherein X1 is (S)-2-(4′-pentenyl)Alanine, X2 is 2,2-bis(4-pentenyl)glycine, and X3 is (S)-2-(4′-pentenyl)Alanine [Ac5] | almost no infected cells | inhibited the virus
2 | HDWTKNITDKIX1QIIX2DFVDK, wherein each of X1 and X2 is (S)-2-(4′-pentenyl)Alanine [Ac9] | almost no infected cells | inhibited the virus
3 | HX1WTKX2ITDKIDQIIHDFVDK, wherein each of X1 and X2 is (S)-2-(4′-pentenyl)Alanine [Ac3] | almost no infected cells | inhibited the virus
4 | X1DWTKNIX2DKIDQIIHDFVDK, wherein X1 is (R)-2-(7′-octenyl) alanine and X2 is (S)-2-(4′-pentenyl)Alanine [Ac4] | almost no infected cells | inhibited the virus

Test system: Makona variant of EBOV
Assay type: cell-based, Ebola virus

Row | Compound | antiviral activity (prevention of EBOV infection)
5 | HX1WTKNITX2KINQIIHDFVNK, wherein X1 is (R)-2-(7′-octenyl) alanine and X2 is (S)-2-(4′-pentenyl)Alanine [SEboV-1] | displayed antiviral activity
6 | HX1WTKX2ITDKINQIIHDFVNK, wherein each of X1 and X2 is (S)-2-(4′-pentenyl)Alanine [SEboV-2] | displayed antiviral activity

Test system: Huh-7 hepatocellular carcinoma cells

Row | Compound | cell permeability (ability to enter cells)
7 | CC[C@H](C)[C@H](NC(=O)[C@H](CCCCN)NC(=O)[C@H](CC(=O)O)NC(=O)[C@@H](NC(=O)[C@@H](NC(=O)[C@H](CC(N)=O)NC(=O)[C@H](CCCCN)NC(=O)[C@@H](NC(=O)[C@H](Cc1c[nH]c2ccccc12)NC(=O)[C@H](CC(=O)O)NC(=O)[C@H](Cc1c[nH]cn1)NC(=O)CCNC(C)=O)[C@@H](C)O)[C@@H](C)CC)[C@@H](C)O)C(=O)N[C@@H](CC(=O)O)C(=O)N[C@@H](CCC(N)=O)C(=O)N[C@H](C(=O)N[C@H](C(=O)N[C@@H](Cc1c[nH]cn1)C(=O)N[C@@H](CC(=O)O)C(=O)N[C@@H](Cc1ccccc1)C(=O)N[C@H](C(=O)N[C@@H](CC(=O)O)C(=O)N[C@@H](CCCCN)C(N)=O)C(C)C)[C@@H](C)CC)[C@@H](C)CC [WT EboV, reference compound] | not cell permeable
8 | CC[C@H](C)[C@H](NC(=O)[C@H](CCC(N)=O)NC(=O)[C@H](CC(N)=O)NC(=O)[C@@H](NC(=O)[C@]1(C)CCCC=CCCC[C@](C)(NC(=O)[C@H](CCCCN)NC(=O)[C@@H](NC(=O)[C@H](Cc2c[nH]c3ccccc23)NC(=O)[C@H](CC(N)=O)NC(=O)[C@H](Cc2c[nH]cn2)NC(=O)CCNC(C)=O)[C@@H](C)O)C(=O)N[C@@H]([C@@H](C)CC)C(=O)N[C@@H]([C@@H](C)O)C(=O)N[C@@H](CC(N)=O)C(=O)N1)[C@@H](C)CC)C(=O)N[C@H](C(=O)N[C@@H](Cc1c[nH]cn1)C(=O)N[C@@H](CC(=O)O)C(=O)N[C@@H](Cc1ccccc1)C(=O)N[C@H](C(=O)N[C@@H](CC(N)=O)C(=O)N[C@@H](CCCCN)C(N)=O)C(C)C)[C@@H](C)CC [SEboV-9, HNWTKX1ITNX2INQIIHDFVNK, wherein each of X1 and X2 is (S)-2-(4′-pentenyl)Alanine] (Ac-[βAla]HNWTK[S5]ITN[S5]INQIIHDFVNK-NH2; staple 7-11) | readily penetrated cells
